Data published in ChEMBL document CHEMBL3045320, “Synthesis, antitumor and antioxidant evaluation of some new thiazole and thiophene derivatives incorporated coumarin moiety” (2012).

Experiments:
[1] = Antioxidant activity assessed as inhibition of ABTS free radical; format: functional; set-up: concentration or dose not given beside the values; details: dose or concentration not given here
[2] = Cytotoxicity against Mus musculus (mouse) EAC cells assessed as dead cell at ED25 ug/cm'3 after 2 hr by trypan blue assay; format: functional, Ehrlich
[3] = Cytotoxicity against Mus musculus (mouse) EAC cells assessed as dead cell at ED100 ug/cm'3 after 2 hr by trypan blue assay; format: functional, Ehrlich
[4] = Cytotoxicity against Mus musculus (mouse) EAC cells assessed as dead cell at ED50 ug/cm'3 after 2 hr by trypan blue assay; format: functional, Ehrlich

N=c1oc2ccccc2cc1C(=O)Nc1nc(-c2cc3ccccc3oc2=O)cs1
inhibition [1]: 61.4%
Activity [2]: 1.3%
Activity [3]: 4.9%
Activity [4]: 2.1%

N#CCC(=O)Nc1nc(-c2cc3ccccc3oc2=O)cs1
inhibition [1]: 70.3%
Activity [2]: 1.8%
Activity [3]: 8%
Activity [4]: 3.8%

Nc1c(C(=O)c2cc3ccccc3oc2=O)sc(Nc2ccccc2)c1-c1nc2ccccc2[nH]1
inhibition [1]: 0.19%
Activity [2]: 1.4%
Activity [3]: 5.6%
Activity [4]: 2.6%

O=c1[nH]cc(F)c(=O)[nH]1 [FLUOROURACIL]
Activity [2]: 37%
Activity [3]: 93%
Activity [4]: 58%

Nc1c(C(=O)c2cc3ccccc3oc2=O)sc(Nc2ccccc2)c1C(=O)Nc1nc(-c2cc3ccccc3oc2=O)cs1
inhibition [1]: 35.4%
Activity [2]: 1.7%
Activity [3]: 7.1%
Activity [4]: 3%

O=C1O[C@H]([C@@H](O)CO)C(O)=C1O
inhibition [1]: 84%

N#C/C(C(=O)N1NC(=O)C2C3c4ccccc4C(c4ccccc43)C2C1=O)=C1/SC=C(c2cc3ccccc3oc2=O)N1c1ccccc1 (stereo not drawn)
inhibition [1]: 5.74%
Activity [2]: 1.1%
Activity [3]: 5.4%
Activity [4]: 2.6%

Nc1c(C(=O)c2cc3ccccc3oc2=O)sc(Nc2ccccc2)c1C(=O)N1NC(=O)C2C3c4ccccc4C(c4ccccc43)C2C1=O (stereo not drawn)
inhibition [1]: 13.7%
Activity [2]: 1.6%
Activity [3]: 6.1%
Activity [4]: 3%

CC(=O)c1cc2ccccc2oc1=O
inhibition [1]: 63.6%

O=C(CBr)c1cc2ccccc2oc1=O
inhibition [1]: 50.2%

Nc1c(C(=O)c2cc3ccccc3oc2=O)sc(S)c1-c1nc2ccccc2s1
inhibition [1]: 75.6%

Nc1nc(-c2cc3ccccc3oc2=O)cs1
inhibition [1]: 74.3%

N#C/C(=C1/SC=C(c2cc3ccccc3oc2=O)N1c1ccccc1)c1nc2ccccc2s1
inhibition [1]: 4.15%
Activity [2]: 1.5%
Activity [3]: 5.7%
Activity [4]: 3%

N#C/C(C(=O)Nc1nc(-c2cc3ccccc3oc2=O)cs1)=C(\Nc1ccccc1)SCC(=O)c1cc2ccccc2oc1=O
inhibition [1]: 23.8%
Activity [2]: 1.5%
Activity [3]: 6.8%
Activity [4]: 3.2%

N#C/C(C(=O)Nc1nc(-c2cc3ccccc3oc2=O)cs1)=C1/SC(=O)CN1c1ccccc1
inhibition [1]: 28.9%
Activity [2]: 1.6%
Activity [3]: 7%
Activity [4]: 3.1%

Nc1c(C(=O)c2cc3ccccc3oc2=O)sc(Nc2ccccc2)c1-c1nc2ccccc2s1
inhibition [1]: 5.94%
Activity [2]: 1.6%
Activity [3]: 5.7%
Activity [4]: 2.9%
